The record followed here is ChEMBL document CHEMBL1166001, “Manadoperoxides A-D from the Indonesian sponge Plakortis cfr. simplex. Further insights on the structure-activity relationships of simple 1,2-dioxane antimalarials” (J Nat Prod, 2010).

Assay [1] has as its system Plasmodium falciparum. Briefly: Antimalarial activity against chloroquine-resistant Plasmodium falciparum W2 after 72 hrs by parasite LDH assay. The class given is functional, organism-based. As to conditions: W2, 72 h.
The subject of assay [2] is Plasmodium falciparum. Briefly: Antimalarial activity against chloroquine-sensitive Plasmodium falciparum D10 after 72 hrs by parasite LDH assay. The class given is functional, organism-based. As to conditions: D10, 72 h.

The IC50 is the concentration that gives 50% inhibition. With `C/C=C(C)/C=C/CCC[C@]1(OC)C[C@H](C)[C@H](CC(=O)OC)OO1` [MANADOPEROXIDE A], the IC50 in the assay with Plasmodium falciparum [1] was 3.74 µM; in the assay with Plasmodium falciparum [2], 6.88 µM.
Turning to `COC(=O)C[C@@H]1OO[C@@](CCC[C@H](O)/C=C(\C)[C@H](C)O)(OC)C[C@@H]1C` [MANADOPEROXIDE D], the IC50 came out at 7.93 µM with Plasmodium falciparum [1] and 10.4 µM with Plasmodium falciparum [2].
Taken in the same sequence, the figures for `COC(=O)C[C@@H]1OO[C@@](CCC/C=C/C(C)=O)(OC)C[C@@H]1C` [MANADOPEROXIDE C] were 2.33 µM and 4.54 µM.
Molecule `CC/C=C/[C@H](CC)C[C@@]1(C)C[C@@H](CC)[C@@H](CC(=O)OC)OO1` [PLAKORTIN] yielded an IC50 with Plasmodium falciparum [1] of 0.39 µM.
In the case of `CC/C=C(C)/C=C/CCC[C@]1(OC)C[C@H](C)[C@H](CC(=O)OC)OO1` [MANADOPEROXIDE B], the half-inhibitory concentration (IC50) turned out to be 3.69 µM in the assay on Plasmodium falciparum [1] and 6.76 µM in the assay on Plasmodium falciparum [2].
